Earlier results as cited in patent publication US11085047B2, “Synthetic cannabinoid compounds for treatment of substance addiction and other disorders” (MyMD Pharmaceuticals (Florida), Inc., priority 2018, dated 2021).

What was measured:
[1] = 2.5 to 5 mg; three patients
[2] = several clinical studies

SMILES: CCCCCc1cc(O)c2c(c1)OC(C)(C)[C@@H]1CCC(C)=C[C@@H]21 [THC, tetrahydrocannabinol]
- effect on pruritus due to liver diseases [1]: effective
- bronchoconstriction after inhalation (inhalation of THC): Very few patients developed bronchoconstriction
- anti-asthmatic effect (oral THC (15 mg), acute studies): approximately correspond to those obtained with therapeutic doses of common bronchodilator drugs
- mood in reactive depression [2]: improvement of mood
